In assay [1] the test system is microorganisms. The assay is described as follows: Peptide activities: targeting/binding, antimicrobial, growth or phenotype altering (Tables 7, 8). It is filed as cell-based. The settings on record: peptides having multiple activities.
Assay [2] concerns microorganisms. The assay is described as follows: Targeting peptide binding to target microorganisms (Tables 3, 10, 12). As to conditions: microorganism(s) the targeting peptide binds; binding in aqueous buffers varied with peptide solubility, preferably 1x PBS.
The subject of assay [3] is microorganisms. The assay is described as follows: Morphology, biofilm and growth disrupting peptides (Table 5). It is filed as cell-based. The arrangement: key: A: Peptide aggregates; B: Less hyphal formation; Clumps; Diffuse clumps and small polyps; F: Diffuse growth; H: Thin; I: Growth inhibition; Microcolony formation; Rippled; Small polyps; Thick; W: Halo formation on top, microlonies on bottom. The text has this: In certain embodiments peptides that induce alterations in phenotype or other biological activities can also be used as antimicrobial effector moieties.

From US20110039763A1, “TARGETED ANTIMICROBIAL MOIETIES” (C3 JIAN, INC., priority 2009, published 2011) come the findings set out here.

Entries after “also recorded” stand apart in the source; their conditions may differ.

In the case of “PF-636: peptide having multiple activities (chain 1 LVRLA; chain 2 LVRLA; Peptide with targeting and/or antimicrobial activity)”, the Activities result with microorganisms [1] was “G B”. Also, in the assay with microorganisms [2], the “Target(s)” value is “S. epidermidis and C. albicans and MRSA and S. pneumoniae and E. faecalis”. The “Organism, effect” value is listed as “B. subtilis (H)” in the assay on microorganisms [3] (B. subtilis), “C. albicans (B)” in the assay with microorganisms [3] (C. albicans), “E. faecalis (H)” in the assay with microorganisms [3] (E. faecalis) and “S. pneumoniae (H)” with microorganisms [3] (S. pneumoniae).
Take “PF-637: peptide having multiple activities (chain 1 SRIKQDARSVRKYDRIGIFFYSFKSA; chain 2 SRIKQDARSVRKYDRIGIFFYSFKSA; Peptide with targeting and/or antimicrobial activity)”: the Activities entry in the assay on microorganisms [1] is listed as “G B”. The “Target(s)” value with microorganisms [2] is “S. epidermidis and P. aeruginosa and C. albicans and MRSA and S. pneumoniae and E. faecalis and C. jeikeium”. Also, the “Organism, effect” value is “C. jeikeium (D)” in the assay with microorganisms [3] (C. jeikeium); “E. faecalis (D)” in the assay with microorganisms [3] (E. faecalis); “MRSA (M)” with microorganisms [3] (MRSA); “S. epidermidis (M)” in the assay with microorganisms [3] (S. epidermidis); “S. pneumoniae (M)” with microorganisms [3] (S. pneumoniae).
For the substance “PF-638: peptide having multiple activities (chain 1 TFILPK; chain 2 TFILPK; Peptide with targeting and/or antimicrobial activity)”, the Activities result in the assay on microorganisms [1] was “G B”. The “Target(s)” value in the assay on microorganisms [2] was “S. epidermidis and C. albicans and MRSA and C. jeikeium”. For the same substance, the “Organism, effect” value in the assay with microorganisms [3] (E. faecalis) is listed as “E. faecalis (H)”; in the assay with microorganisms [3] (MRSA), “MRSA (M)”; in the assay on microorganisms [3] (S. epidermidis) it was “S. epidermidis (R)”; in the assay on microorganisms [3] (S. pneumoniae), “S. pneumoniae (I)”.
Regarding “PF-639: peptide having multiple activities (chain 1 QATQIKSWIDRLLVSED; chain 2 QATQIKSWIDRLLVSED; Peptide with targeting and/or antimicrobial activity)”, the Activities entry in the assay with microorganisms [1] is given as “G B”. Further, in the assay on microorganisms [2], the “Target(s)” value was “S. pneumoniae; also recorded: C. jeikeium”. The “Organism, effect” value was “C. albicans (B)” in the assay on microorganisms [3] (C. albicans), “E. faecalis (H)” in the assay on microorganisms [3] (E. faecalis), “MRSA (R)” in the assay on microorganisms [3] (MRSA) and “S. pneumoniae (I)” in the assay with microorganisms [3] (S. pneumoniae).
On to “PF-640: peptide having multiple activities (chain 1 MGDINRNF; chain 2 MGDINRNF; Peptide with targeting and/or antimicrobial activity)”, for which the Activities result in the assay with microorganisms [1] is recorded as “G B”. For the same substance, the “Target(s)” value in the assay with microorganisms [2] is recorded as “C. albicans”. The results for the “Organism, effect” value with microorganisms [3] (C. albicans), in the assay on microorganisms [3] (E. faecalis) and in the assay on microorganisms [3] (S. pneumoniae) were “C. albicans (B)”, “E. faecalis (H)” and “S. pneumoniae (I)”, respectively.
With “PF-642: peptide having multiple activities (chain 1 FTTPMIGIPAGLLGGSYYLKRREEKGK; chain 2 FTTPMIGIPAGLLGGSYYLKRREEKGK; Peptide with targeting and/or antimicrobial activity)”, the Activities result with microorganisms [1] is listed as “G B”. The “Target(s)” value in the assay on microorganisms [2] was “M. luteus and MRSA and C. jeikeium”. Further, the “Organism, effect” value in the assay with microorganisms [3] (MRSA) is listed as “MRSA (M)”.
Take “PF-655: peptide having multiple activities (chain 1 DAPCFDDQFGDLKCQMC; chain 2 DAPCFDDQFGDLKCQMC; Peptide with targeting and/or antimicrobial activity)”: the Activities entry in the assay with microorganisms [1] is “G B”. For the same substance, the “Target(s)” value in the assay with microorganisms [2] was “M. smegmatis”. Also, the “Organism, effect” value is “B. subtilis (H)” in the assay with microorganisms [3] (B. subtilis), “MRSA (M)” in the assay with microorganisms [3] (MRSA), “S. epidermidis (R)” in the assay on microorganisms [3] (S. epidermidis) and “S. pneumoniae (H)” with microorganisms [3] (S. pneumoniae).
In the case of “PF-664: peptide having multiple activities (chain 1 DQLCVEYPARVSTG; chain 2 DQLCVEYPARVSTG; Peptide with targeting and/or antimicrobial activity)”, the Activities result with microorganisms [1] is on record as “G B”. Further, in the assay with microorganisms [2], the “Target(s)” value was “M. smegmatis”. The “Organism, effect” value with microorganisms [3] (E. faecalis) is recorded as “E. faecalis (R)”; with microorganisms [3] (MRSA), “MRSA (R)”; with microorganisms [3] (S. epidermidis), “S. epidermidis (M)”; in the assay on microorganisms [3] (S. pneumoniae), “S. pneumoniae (M)”.
On to “PF-681: peptide having multiple activities (TALTTVGVSGARLITYCVGVEDI; Peptide with targeting and/or antimicrobial activity)”, for which, in the assay on microorganisms [1], the Activities result is reported as “G B”. Besides, the “Target(s)” value with microorganisms [2] was “M. smegmatis”. Also, the “Organism, effect” value with microorganisms [3] (C. jeikeium) is “C. jeikeium (R)”; with microorganisms [3] (E. faecalis), “E. faecalis (R)”; in the assay on microorganisms [3] (MRSA), “MRSA (M)”; with microorganisms [3] (S. epidermidis), “S. epidermidis (M)”; in the assay with microorganisms [3] (S. pneumoniae), “S. pneumoniae (M)”.
In the case of “PF-686: peptide having multiple activities (LAVLMGYIGYRGWSGKRHINRQ; Peptide with targeting and/or antimicrobial activity)”, in the assay with microorganisms [1], the Activities result is recorded as “G B”. The “Target(s)” value in the assay with microorganisms [2] is “M. smegmatis”. Also, the “Organism, effect” value in the assay on microorganisms [3] (B. subtilis) is listed as “B. subtilis (I)”; with microorganisms [3] (C. albicans), “C. albicans (B)”; in the assay on microorganisms [3] (E. faecalis), “E. faecalis (R)”; in the assay with microorganisms [3] (MRSA), “MRSA (M)”; in the assay with microorganisms [3] (S. epidermidis), “S. epidermidis (H)”; in the assay on microorganisms [3] (S. pneumoniae), “S. pneumoniae (A)”.
In the case of “PF-737: peptide having multiple activities (KSSGSSASASSTAGGSSSK; Peptide with targeting and/or antimicrobial activity)”, the Activities entry in the assay with microorganisms [1] was “G B”. Also, in the assay on microorganisms [2], the “Target(s)” value is “S. epidermidis; also recorded: S. pneumoniae”. Also, in the assay on microorganisms [3] (S. pneumoniae), the “Organism, effect” value is on record as “S. pneumoniae (D)”.
On to “PF-738: peptide having multiple activities (KSGATSAASGAKSGASS; Peptide with targeting and/or antimicrobial activity)”, for which the Activities result in the assay with microorganisms [1] is reported as “G B”. In the assay with microorganisms [2], the “Target(s)” value is reported as “S. epidermidis; also recorded: C. albicans; also recorded: C. jeikeium”. In addition, in the assay on microorganisms [3] (MRSA), the “Organism, effect” value is “MRSA (M)”.
For “PF-741: peptide having multiple activities (AKREDTVAAQIGANILNLIQ; Peptide with targeting and/or antimicrobial activity)”, the Activities result in the assay on microorganisms [1] is listed as “G B”. In addition, in the assay with microorganisms [2], the “Target(s)” value was “S. epidermidis and M. luteus and P. mirabilis and P. aeruginosa and C. albicans and MRSA and S. pneumoniae and E. faecalis”. For the same substance, the “Organism, effect” value in the assay with microorganisms [3] (E. coli) was “E. coli (C)”; with microorganisms [3] (M. luteus) it was “M. luteus (C)”; in the assay on microorganisms [3] (MRSA), “MRSA (C)”; in the assay with microorganisms [3] (P. mirabilis), “P. mirabilis (C)”; with microorganisms [3] (S. epidermidis), “S. epidermidis (C)”; with microorganisms [3] (S. mutans), “S. mutans (D)”. For the same substance, the “Organism, effect” value in the assay on microorganisms [3] (S. pneumoniae) is given as “S. pneumoniae (D)”.
Turning to “PF-744: peptide having multiple activities (LGVGTFVGKVLIKNQQKQKSKKKAQ; Peptide with targeting and/or antimicrobial activity)”, the Activities entry with microorganisms [1] is “G B”. Also, the “Target(s)” value in the assay with microorganisms [2] was “S. epidermidis and M. luteus and E. coli and MRSA and S. pneumoniae and E. faecalis and C. jeikeium”. In the assay on microorganisms [3] (S. pneumoniae), the “Organism, effect” value is listed as “S. pneumoniae (H)”.
For the substance “PF-746: peptide having multiple activities (FLGNSQYFTRK; Peptide with targeting and/or antimicrobial activity)”, the Activities entry in the assay on microorganisms [1] was “G B”. Further, the “Target(s)” value in the assay with microorganisms [2] was “S. epidermidis; also recorded: M. luteus; also recorded: E. coli; also recorded: C. albicans; also recorded: S. pneumoniae; also recorded: E. faecalis; also recorded: C. jeikeium”. Also, the “Organism, effect” value is “E. coli (C)” in the assay with microorganisms [3] (E. coli); “M. luteus (C)” in the assay on microorganisms [3] (M. luteus); “MRSA (C)” in the assay with microorganisms [3] (MRSA); “P. aeruginosa (A)” in the assay with microorganisms [3] (P. aeruginosa); “S. epidermidis (C)” in the assay on microorganisms [3] (S. epidermidis); “S. mutans (D)” with microorganisms [3] (S. mutans). Further, in the assay on microorganisms [3] (S. pneumoniae), the “Organism, effect” value was “S. pneumoniae (C)”.
For “PF-756: peptide having multiple activities (DALLRLA; Peptide with targeting and/or antimicrobial activity)”, the Activities entry in the assay on microorganisms [1] is given as “G B”. Besides, the “Target(s)” value in the assay on microorganisms [2] was “S. epidermidis and M. luteus and C. albicans and MRSA and C. jeikeium”. In the assay on microorganisms [3] (S. pneumoniae), the “Organism, effect” value is on record as “S. pneumoniae (A)”.
On to “PF-757: peptide having multiple activities (PQAISSVQQNA; Peptide with targeting and/or antimicrobial activity)”, for which, in the assay with microorganisms [1], the Activities result was “G B”. Moreover, in the assay with microorganisms [2], the “Target(s)” value is “M. luteus and C. albicans and MRSA”. Also, the “Organism, effect” value in the assay on microorganisms [3] (S. pneumoniae) is given as “S. pneumoniae (H)”.
On to “PF-760: peptide having multiple activities (DHITLDDYEIHDGFNFELYYG; Peptide with targeting and/or antimicrobial activity)”, for which the Activities entry in the assay with microorganisms [1] is given as “G B”. In addition, the “Target(s)” value with microorganisms [2] is given as “S. epidermidis; also recorded: M. luteus”. Also, the “Organism, effect” value in the assay on microorganisms [3] (MRSA) was “MRSA (M)”; with microorganisms [3] (S. epidermidis), “S. epidermidis (M)”; in the assay on microorganisms [3] (S. pneumoniae) it was “S. pneumoniae (C)”.
